Results as given in PMC6541974, “Rho-Kinase II Inhibitory Potential of Eurycoma longifolia New Isolate for the Management of Erectile Dysfunction” (Evidence-based Complementary and Alternative Medicine : eCAM, 2019).
Where two headings read alike, the source gives them in different places. One block for each compound: values may come before it.

Experiments:
[1] = biological target: T1, ROCK-II (Homo sapiens, UniProt O75116); experiment: ROCK-II inhibition assay (ADP-Glo Kinase Assay, ROCK2 Kinase assay); assay type: biochemical; details: for inhibition at 0.01 µg/mL / inhibition at 0.1 µg/mL / inhibition at 1 µg/mL / inhibition at 10 µg/mL: read-out: % of inhibition of ROCK-II ± SD
T1 construct: purchased Promega, USA
Procedure: A vehicle control for 5% DMSO was used in the assay to check the interference. Standard curve for ROCK-II enzyme was done (Figure 2). Serial dilution and IC50 of the AE was performed in triplicate.
The assay was repeated as mentioned in Section 2.3 on the AE fractions and the isolates T1-T8.
The assay performance measure was used to validate the screening assay quality through calculation of Z-factor according to methodology of Zhang et al., 1999 [18].
Enzyme inhibition by tested samples is expressed as mean ± SD and analyzed using Prism program version 6 (GraphPad Software, Inc., San Diego CA); comparisons among tested samples were carried out using one-way analysis of variance (ANOVA) followed by Bonferroni's multiple comparisons test. P ‹ 0.05 was considered significant.

[2] = system: testosterone production; set-up: method as in PMID 26978330; details: cited from earlier work
[3] = system: aromatase enzyme; set-up: method as in PMID 23810842; details: Leydig cells, transformation of testosterone to estrogen; cited from earlier work
[4] = system: phosphodiesterase; set-up: method as in PMID 23810842; details: high concentration; cited from earlier work
[5] = mean ± SD, triplicates, read-out: IC50 (converted)

T1 sequence (O75116 whole entry): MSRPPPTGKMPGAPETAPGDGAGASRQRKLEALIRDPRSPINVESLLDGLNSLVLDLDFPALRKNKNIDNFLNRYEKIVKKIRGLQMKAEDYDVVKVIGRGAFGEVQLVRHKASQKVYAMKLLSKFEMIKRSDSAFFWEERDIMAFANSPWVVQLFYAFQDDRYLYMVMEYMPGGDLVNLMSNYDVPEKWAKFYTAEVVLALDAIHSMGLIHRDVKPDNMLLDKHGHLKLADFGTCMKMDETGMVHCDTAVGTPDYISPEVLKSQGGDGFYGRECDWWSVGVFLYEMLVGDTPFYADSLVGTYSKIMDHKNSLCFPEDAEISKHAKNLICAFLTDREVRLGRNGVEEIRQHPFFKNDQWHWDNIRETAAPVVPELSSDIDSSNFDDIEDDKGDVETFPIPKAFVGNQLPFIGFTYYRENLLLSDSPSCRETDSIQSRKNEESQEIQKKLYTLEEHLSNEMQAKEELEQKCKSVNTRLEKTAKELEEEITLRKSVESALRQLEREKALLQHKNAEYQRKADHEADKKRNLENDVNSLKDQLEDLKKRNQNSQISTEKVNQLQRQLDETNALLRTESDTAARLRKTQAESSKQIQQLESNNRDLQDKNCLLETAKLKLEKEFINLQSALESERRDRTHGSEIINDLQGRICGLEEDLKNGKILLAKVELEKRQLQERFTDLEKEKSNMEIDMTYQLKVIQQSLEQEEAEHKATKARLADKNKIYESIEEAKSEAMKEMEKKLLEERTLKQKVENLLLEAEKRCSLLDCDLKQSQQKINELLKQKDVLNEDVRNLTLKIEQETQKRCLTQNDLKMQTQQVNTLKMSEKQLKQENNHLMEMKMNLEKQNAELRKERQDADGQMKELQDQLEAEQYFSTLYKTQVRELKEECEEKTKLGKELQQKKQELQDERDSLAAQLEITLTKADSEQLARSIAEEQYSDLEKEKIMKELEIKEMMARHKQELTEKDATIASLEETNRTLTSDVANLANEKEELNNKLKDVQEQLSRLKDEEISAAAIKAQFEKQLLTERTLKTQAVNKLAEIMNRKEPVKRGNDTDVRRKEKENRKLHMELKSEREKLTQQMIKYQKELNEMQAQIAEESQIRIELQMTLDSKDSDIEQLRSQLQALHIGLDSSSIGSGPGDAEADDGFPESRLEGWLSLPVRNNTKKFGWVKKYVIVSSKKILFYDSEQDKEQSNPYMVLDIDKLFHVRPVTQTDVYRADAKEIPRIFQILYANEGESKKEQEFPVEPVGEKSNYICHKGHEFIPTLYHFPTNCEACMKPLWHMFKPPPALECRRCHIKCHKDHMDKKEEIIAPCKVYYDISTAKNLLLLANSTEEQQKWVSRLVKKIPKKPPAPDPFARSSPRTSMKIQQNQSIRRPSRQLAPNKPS

% of inhibition of ROCK-II ± SD ([1]; concentration 0.01 µg/ml): 22.5 ± 1.27∗ %
% of inhibition of ROCK-II ± SD ([1]; concentration 0.1 µg/ml): 42.15 ± 2.19∗ %
% of inhibition of ROCK-II ± SD ([1]; concentration 1 µg/ml): 68.15 ± 2.75∗ %
% of inhibition of ROCK-II ± SD ([1]; concentration 10 µg/ml): 89.9± 0.42∗ %
inhibition for ROCK-II activity ([1]; concentrations 1-10 μg/ml): 68.15-89.9%
Compound: C[C@@H](N)[C@H]1CC[C@H](C(=O)Nc2ccncc2)CC1.Cl.Cl (relative stereo) [Compound Y-27632, (+)-(R)-trans-4-(1-aminoethyl)-N-(4-pyridyl)cyclohexanecarboxamide dihydrochloride, reference compound]

Compound: CC[C@H](/C=C/[C@@H](C)[C@H]1CC[C@H]2[C@@H]3CC=C4C[C@@H](O)CC[C@]4(C)[C@H]3CC[C@]12C)C(C)C [Compound T1, stigmasterol]
IC50 [1, 5]: 14900 nM
inhibition at 0.01 µg/mL [1]: 2.78 ± 1.84%
inhibition at 0.1 µg/mL [1]: 13.3 ± 2.26%
inhibition at 1 µg/mL [1]: 27.4 ± 2.47%
inhibition at 10 µg/mL [1]: 60.3 ± 0.14%

inhibition at 0.01 µg/mL ([1]; concentration 0.01 µg/ml): 10.6 ± 2.94%
inhibition at 0.1 µg/mL ([1]; concentration 0.1 µg/ml): 33.2 ± 1.55%
inhibition at 1 µg/mL ([1]; concentration 1 µg/ml): 68.5 ± 0.35%
inhibition at 10 µg/mL ([1]; concentration 10 µg/ml): 82.1 ± 0.63%
IC50 [1, 5]: 2010 nM
Compound: COc1cc(/C=C/C=O)ccc1O [Compound T2, trans-coniferyl aldehyde]

inhibition at 0.01 µg/mL ([1]; concentration 0.01 µg/ml): 10.1 ± 3.34%
inhibition at 0.1 µg/mL ([1]; concentration 0.1 µg/ml): 25 ± 2.47%
inhibition at 1 µg/mL ([1]; concentration 1 µg/ml): 66.15 ± 0.07%
inhibition at 10 µg/mL ([1]; concentration 10 µg/ml): 77.1 ± 0.11%
IC50 [1, 5]: 2730 nM
Compound: COc1cc2ccc(=O)oc2cc1O [Compound T3, scopoletin]

Compound: CC1=CC(=O)[C@@H](O)[C@@]2(C)[C@H]1CC(=O)[C@@]1(C)[C@H]3C(=O)O[C@H]([C@@H]3C)[C@H](O)[C@@H]12 [Compound T4, eurycomalactone]
IC50 [1]: 2280 nM
inhibition at 0.01 µg/mL [1]: 6.13 ± 0.44%
inhibition at 0.1 µg/mL [1]: 25.7 ± 2.47%
inhibition at 1 µg/mL [1]: 54 ± 0.42%
inhibition at 10 µg/mL [1]: 76.2 ± 3.53%

Compound: C=C1C(O)C2(O)OCC34C(CC5C(C)=CC(OC6OC(CO)C(O)C(O)C6O)C(O)C5(C)C23)OC(=O)C(O)C14O [Compound T8, eurycomanol-2-O-β-D-glycopyranoside]
IC50 [1]: 2520 nM
inhibition at 0.01 µg/mL [1]: 4.06 ± 3.8%
inhibition at 0.1 µg/mL [1]: 17 ± 0.77%
inhibition at 1 µg/mL [1]: 46.5 ± 1.62%
inhibition at 10 µg/mL [1]: 71.4 ± 2.54%

Compound: eurycomanone [Compound T6]
testosterone production [2]: induce testosterone production
aromatase enzyme inhibition [3]: aromatase enzyme inhibition
% of inhibition of ROCK-II ± SD ([1]; concentration 0.01 µg/ml): 5.4 ± 3.74%
% of inhibition of ROCK-II ± SD ([1]; concentration 0.1 µg/ml): 26.4 ± 2.61∗ %
% of inhibition of ROCK-II ± SD ([1]; concentration 1 µg/ml): 57.1 ± 0.56∗ %
% of inhibition of ROCK-II ± SD ([1]; concentration 10 µg/ml): 78.3 ± 0.38∗ %
IC50 ([1]; mean ± SD, triplicates): 677 ± 51.1∗ ng/ml
effect on phosphodiesterase [4]: inhibitory effect
